The values that follow come from ChEMBL document CHEMBL4219094, “Synthesis and evaluation of substituted 4-arylimino-3-hydroxybutanoic acids as potential HIV-1 integrase inhibitors” (Bioorg Med Chem Lett, 2018).

A short description of data set [1]: Cytotoxicity against HEK293 cells after 48 hrs by resazurin dye-based fluorescence assay. Format: cell-based. Particulars: human.
Data set [2] has as its system HEK293. The data set is described as follows: Cytotoxicity against HEK293 cells at 100 uM after 48 hrs by resorufin dye-based fluorescence assay relative to control. The data set is classed as cell-based. Particulars: human, hek293, 48 h.
For data set [3], the target named is Human immunodeficiency virus type 1 integrase (Human immunodeficiency virus 1, UniProt Q7ZJM1). The data set is described as follows: Inhibition of HIV-1 subtype C integrase in presence of biotinylated DNA by colorimetric analysis.

pIC50: −log10 of the molar value. A value given as a limit tells only on which side of the number the result lay.

Sequence of Human immunodeficiency virus type 1 integrase (Q7ZJM1 whole entry): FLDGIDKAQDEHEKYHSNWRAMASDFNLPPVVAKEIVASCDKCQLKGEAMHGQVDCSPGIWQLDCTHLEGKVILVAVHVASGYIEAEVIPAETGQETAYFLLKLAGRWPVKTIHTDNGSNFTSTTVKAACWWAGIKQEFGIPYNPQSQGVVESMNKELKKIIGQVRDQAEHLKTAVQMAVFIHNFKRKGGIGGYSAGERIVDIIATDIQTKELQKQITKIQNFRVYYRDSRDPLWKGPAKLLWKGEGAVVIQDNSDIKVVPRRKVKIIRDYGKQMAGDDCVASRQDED

For the molecule `CC[C@H]1CN2CCc3cc(OC)c(OC)cc3[C@@H]2C[C@@H]1C[C@H]1NCCc2cc(OC)c(OC)cc21` [EMETINE], half-maximal cytotoxicity in data set [1] (CC50 at 48 h) was put at 0.071 µM.
Take `O=C(O)CC(O)/C=N/c1ccc(O)c(O)c1` (configuration not stated): in data set [2], the Activity result is given as “Non-Toxic”. Further, the pIC50 in data set [3] is 4.41.
Consider `O=C(O)CC(O)/C=N/c1cc(Br)cc(Br)c1O` (configuration not stated), for which the negative logarithm of the IC50 (pIC50) in data set [3] was 4.58. It took 104 µM to reach half-maximal cytotoxicity in data set [1] (CC50 at 48 h).
As for `O=C(O)CC(O)/C=N/c1cc(Cl)cc(Cl)c1O` (configuration not stated), the pIC50 in data set [3] was under 4.00. For the same molecule, half-maximal cytotoxicity in data set [1] (CC50 at 48 h) was put at 101 µM.
The corresponding values for `O=C(O)CC(O)/C=N/c1cc(Cl)cc(Br)c1O` (configuration not stated) are under 4.00 and 109 µM.
As to `O=C(O)CC(O)/C=N/c1ccccc1O` (configuration not stated), in data set [2], the Activity entry is on record as “Non-Toxic”. The pIC50 in data set [3] is under 4.00.
The matching figures for `O=C(O)CC(O)/C=N/c1cccc(O)c1O` (configuration not stated): “Non-Toxic” and 4.27.
The corresponding values for `O=C(O)CC(O)/C=N/c1ccc(O)c(O)c1O` (configuration not stated) are “Non-Toxic” and 5.45.
The corresponding values for `O=C(O)CC(O)/C=N/c1cc([N+](=O)[O-])ccc1O` (configuration not stated) are “Non-Toxic” and 4.19.
